Patent publication US20020022722A1, “4'-C-ethynyl pyrimidine nucleoside compounds” (priority 1999, published 2002)
≈ marks a conversion by molar mass, not a printed value. Where two headings read alike, the source gives them in different places.

Experiments:
[1] = result in words; cited from earlier work
multi-PI resistant HIV-1 = settings: result in words; cited from earlier work
[2] = Cytotoxicity, MTT method using non-infected MT-4 cells; format: cell-based; settings: human
Method: (§1) 1) MTT Method Using MT-4 Cells
(§2) 1. A test agent (100 μl) is diluted on a 96-well microplate. MT-4 cells infected with HIV-1 (IIIb strain; 100 TCID50) and non-infected MT-4 cells are added to the microplate such that the number of cells in each well becomes 10,000. The cells are cultured at 37° C. for five days.
(§3) 2. MTT (20 μl, 7.5 mg/ml) is added to each well, and the cells are further cultured for 2-3 hours.
(§4) 3. The cultured medium (120 μl) is sampled, and MTT terminating solution (isopropanol containing 4% Triton X-100 and 0.04N HCl) is added to the sample. The mixture is stirred to form formazane, which is dissolved. The absorbance at 540 nm of the solution is measured. Since the absorbance is proportional to the number of viable cells, the test agent concentration at which a half value of the absorbance is measured in a test using infected MT-4 cells represents EC50, whereas the test agent concentration at which a half value of the absorbance is measured in a test using non-infected MT-4 cells represents CC50.

HIV strain C = test: MAGI assay using HeLa CD4/LTR-beta-Gal cells, C; format: cell-based; settings: Human immunodeficiency virus 1, HeLa; for EC90: read-out: HIV C (EC90, μM); for EC50: read-out: HIV C EC50, μM
Method: (§5) 2) MAGI Assay Using HeLa CD4/LTR-beta-Gal Cells
(§6) 1. HeLa CD4/LTR-beta-Gal cells are added to 96 wells such that the number of cells in each well is 10,000. After 12-24 hours, the culture medium is removed, and a diluted test agent (100 μl) is added.
(§7) 2. A variety of HIV strains (wild strain: WT, drug-resistant strain: MDR, M184V, NL4-3, 104pre, and C; each equivalent to 50 TCID50) are added, and the cells are further cultured for 48 hours.
(§8) 3. The cells are fixed for five minutes using PBS containing 1% formaldehyde and 0.2% glutaraldehyde.
(§9) 4. After the fixed cells are washed with PBS three times, the cells are stained with 0.4 mg/ml X-Gal for one hour, and the number of blue-stained cells of each well is counted under a transmission stereoscopic microscope. The test agent concentration at which blue-stained cells decrease to 50% and 90% in number represents EC50 and EC90, respectively.

HIV strain NL4-3 = test: MAGI assay using HeLa CD4/LTR-beta-Gal cells, NL4-3; format: cell-based
Method: as §5, §6, §7, §8, §9

HIV strain 104pre = test: MAGI assay using HeLa CD4/LTR-beta-Gal cells, 104pre; format: cell-based
Method: as §5, §6, §7, §8, §9

HIV-1 (IIIb strain) = test: Anti-HIV activity, MTT method using MT-4 cells; format: cell-based; settings: Human immunodeficiency virus 1, IIIB
Method: (2) Anti-human Immunodeficiency Virus (HIV) Activity
as §1, §2, §3, §4

[3] = test system: HIV drug-resistant strain: M184V; test: MAGI assay using HeLa CD4/LTR-beta-Gal cells, M184V; format: cell-based; settings: Human immunodeficiency virus 1, HeLa
Method: as §5, §6, §7, §8, §9

[4] = Cytotoxicity by use of HeLa CD4/LTR-beta-Gal cells; format: cell-based; settings: human
Method: (§10) 5. In a manner similar to that employed in the MTT method, cytotoxicity is measured by use of HeLa CD4/LTR-beta-Gal cells.

[5] = test system: HIV drug-resistant strain: MDR; test: MAGI assay using HeLa CD4/LTR-beta-Gal cells, MDR; format: cell-based; settings: Human immunodeficiency virus 1, HeLa
Method: as §5, §6, §7, §8, §9

HIV wild strain: WT = test: MAGI assay using HeLa CD4/LTR-beta-Gal cells, WT; format: cell-based
Method: as §5, §6, §7, §8, §9

HIV-1 IIIb strain = settings: MT-4 cells, result in words; cited from earlier work
[6] = test system: HeLa CD4/LTR-beta-Gal cells; test: Cytotoxicity by use of HeLa CD4/LTR-beta-Gal cells; format: cell-based; settings: Table 6
Method: as §10

[7] = MT4, Table 4, read-out: HIV-1 (EC50)
[8] = non-infected MT-4 cells, Table 3, read-out: Cytotoxicity (CC50, μg/ml)
[9] = read-out: HIV M184V (EC50, μg/ml), Table 6
[10] = Table 6, read-out: Cytotoxicity (CC50, μg/ml)
[11] = MT4, Table 3, read-out: HIV-1 (EC50, μg/ml)
[12] = read-out: HIV MDR (EC50, μg/ml), Table 6
[13] = Human immunodeficiency virus 1, HeLa, read-out: HIV WT (EC50, μg/ml), Table 6
[14] = non-infected MT-4 cells, Table 2, read-out: Cytotoxicity (CC50, μg/ml)
[15] = read-out: HIV M184V (EC50, μg/ml), Table 5
[16] = Table 5, read-out: Cytotoxicity (CC50, μg/ml)
[17] = MT4, read-out: HIV-1 (EC50, μg/ml), Table 2
[18] = read-out: HIV MDR (EC50, μg/ml), Table 5
[19] = Human immunodeficiency virus 1, HeLa, read-out: HIV WT (EC50, μg/ml), Table 5
[20] = MT4, read-out: HIV-1 (EC50, μg/ml), Table 3
[21] = MT4, Table 2, read-out: HIV-1 (EC50, μg/ml)

C#C[C@]1(CO)O[C@@H](n2ccc(N)nc2=O)[C@H](O)[C@@H]1O [4′-C-ethynylcytidine]
biological activities such as antiviral and antitumor activities [1]: no such biological activities have been observed

Cc1ccccc1CNC(=O)[C@H]1N(C(=O)[C@@H](O)[C@H](Cc2ccccc2)NC(=O)c2cccc(O)c2C)CSC1(C)C [JE-2147]
antiviral activity against a multi-PI resistant HIV-1 (multi-PI resistant HIV-1): potent antiviral activity

C#C[C@]1(CO)O[C@@H](n2cc(F)c(N)nc2=O)C[C@@H]1O [Compound 37, 4′-C-ethynyl-2′-deoxy-5-fluorocytidine]
CC50 at 5 days ([2]; non-infected MT-4 cells, Table 4, read-out: Cytotoxicity (CC50)): > 500000 nM
EC90 (HIV strain C): 3.44 µM
EC50 (HIV strain C): 0.122 µM
EC90 (HIV strain NL4-3; Human immunodeficiency virus 1, NL43, HeLa, read-out: HIV NL-43 (EC90, μM)): 0.25 µM
EC50 (HIV strain NL4-3; Human immunodeficiency virus 1, NL43, HeLa, read-out: HIV NL-43 EC50, μM): 0.021 µM
EC90 (HIV strain 104pre; Human immunodeficiency virus 1, HeLa, read-out: HIV 104 pre (EC90, μM)): 0.19 µM
EC50 (HIV strain 104pre; Human immunodeficiency virus 1, HeLa, read-out: HIV 104 pre EC50, μM): 0.022 µM
EC50 (HIV-1 (IIIb strain); [7]): 33 nM

C#C[C@]1(CO)O[C@@H](n2ccc(=O)[nH]c2=O)[C@H](O)[C@@H]1O [4′-C-ethynyluridine]
biological activities such as antiviral and antitumor activities [1]: no such biological activities have been observed

C#C[C@]1(CO)O[C@@H](n2cnc3c(=O)[nH]cnc32)CC1O (stereo partly drawn) [Compound 29, 9-(2-deoxy-4-C-ethynyl-β-D-ribo-pentofuranosyl)hypoxanthine]
CC50 at 5 days [2, 8]: 38 µg/mL
EC50 [3, 9]: 4.6 µg/mL (≈ 16.7 µM)
CC50 [4, 10]: > 100 µg/mL
EC50 (HIV-1 (IIIb strain); [11]): 0.037 µg/mL
EC50 [5, 12]: 0.14 µg/mL (≈ 0.507 µM)
EC50 (HIV wild strain: WT; [13]): 0.22 µg/mL (≈ 0.796 µM)

C#C[C@]1(CO)O[C@@H](n2cc(C)c(=O)[nH]c2=O)[C@H](O)[C@@H]1O [1-(4-C-ethynyl-β-D-ribo-pentofuranosyl)thymine]
biological activities such as antiviral and antitumor activities [1]: no such biological activities have been observed

C#C[C@]1(CO)O[C@@H](n2ccc(N)nc2=O)[C@@H](O)[C@@H]1O [Compound 19, 1-(4-C-ethynyl-β-D-arabino-pentofuranosyl)cytosine]
CC50 at 5 days [2, 14]: 0.53 µg/mL
EC50 [3, 15]: 0.19 µg/mL (≈ 0.711 µM)
CC50 [4, 16]: > 100 µg/mL
EC50 (HIV-1 (IIIb strain); [17]): 0.0115 µg/mL
EC50 [5, 18]: 0.021 µg/mL (≈ 0.0786 µM)
EC50 (HIV wild strain: WT; [19]): 0.0019 µg/mL (≈ 0.00711 µM)

C#C[C@]1(CO)O[C@@H](n2cnc3c(N)nc(N)nc32)CC1O (stereo partly drawn) [Compound 28, 9-(2-deoxy-4-C-ethynyl-β-D-ribo-pentofuranosyl)-2,6-diaminopurine]
CC50 at 5 days [2, 8]: 0.26 µg/mL
EC50 [3, 9]: 0.0017 µg/mL (≈ 0.00586 µM)
CC50 [4, 10]: 2.7 µg/mL (≈ 9.3 µM)
EC50 (HIV-1 (IIIb strain); [20]): 0.0001 µg/mL
EC50 [5, 12]: 0.00029 µg/mL (≈ 0.000999 µM)
EC50 (HIV wild strain: WT; [13]): 0.00028 µg/mL (≈ 0.000965 µM)

C#C[C@]1(CO)O[C@@H](n2cnc3c(N)ncnc32)CC1O (stereo partly drawn) [Compound 23, 9-(2-deoxy-4-C-ethynyl-β-D-ribo-pentofuranosyl)adenine]
CC50 at 5 days [2, 8]: 4.4 µg/mL
EC50 [3, 9]: 0.013 µg/mL (≈ 0.0472 µM)
CC50 [4, 10]: > 100 µg/mL
EC50 (HIV-1 (IIIb strain); [11]): 0.0027 µg/mL
EC50 [5, 12]: 0.0017 µg/mL (≈ 0.00618 µM)
EC50 (HIV wild strain: WT; [13]): 0.0012 µg/mL (≈ 0.00436 µM)

C#C[C@]1(CO)O[C@@H](n2ccc(N)nc2=O)C[C@@H]1O [Compound 13, 4′-C-ethynyl-2′-deoxycytidine]
EC50 [3, 15]: 0.00054 µg/mL (≈ 0.00215 µM)
EC50 (HIV-1 (IIIb strain); [21]): 0.0012 µg/mL
EC50 [5, 18]: 0.0003 µg/mL (≈ 0.00119 µM)
EC50 (HIV wild strain: WT; Human immunodeficiency virus 1, Table 5, read-out: HIV WT (EC50, μg/ml)): 0.00031 µg/mL (≈ 0.00123 µM)

C#C[C@]1(CO)O[C@@H](n2cc(C)c(=O)[nH]c2=O)C[C@@H]1O [4′-C-ethynyl thymidine, 4′-C-ethynylthymidine, reference compound]
CC50 at 5 days [2, 14]: > 100 µg/mL
EC50 [3, 15]: 0.049 µg/mL (≈ 0.184 µM)
CC50 [4, 16]: > 100 µg/mL
EC50 (HIV-1 (IIIb strain); [21]): 0.22 µg/mL
EC50 [5, 18]: 0.033 µg/mL (≈ 0.124 µM)
EC50 (HIV wild strain: WT; [19]): 0.097 µg/mL (≈ 0.364 µM)
anti-HIV activity compared with AZT (HIV-1 IIIb strain): weaker than that of AZT

Cc1cn([C@H]2C[C@H](N=[N+]=[N-])[C@@H](CO)O2)c(=O)[nH]c1=O [AZT, zidovudine, reference compound]
CC50 at 5 days ([2]; Table 2, read-out: Cytotoxicity (CC50, μg/ml)): > 0.27 µg/mL
CC50 at 5 days ([2]; Table 3, read-out: Cytotoxicity (CC50, μg/ml)): 9.08 µg/mL
EC50 [3, 15]: 0.0083 µg/mL (≈ 0.0311 µM)
EC50 [3, 9]: 0.0013 µg/mL (≈ 0.00486 µM)
Cytotoxicity (CC50, μg/ml) [6]: >26.7 µg/mL
CC50 [4, 16]: > 26.7 µg/mL
EC90 (HIV strain C): > 10 µM
EC50 (HIV strain C): 3.27 µM
EC90 (HIV strain NL4-3; Human immunodeficiency virus 1, NL43, Table 7, value in parentheses, HeLa CD4/LTR-beta-Gal cells, read-out: HIV NL-43 (EC90)): 4.96 µM
EC50 (HIV strain NL4-3; Human immunodeficiency virus 1, NL43, Table 7, HeLa CD4/LTR-beta-Gal cells, read-out: HIV NL-43 EC50): 0.109 µM
EC90 (HIV strain 104pre; Human immunodeficiency virus 1, Table 7, value in parentheses, HeLa CD4/LTR-beta-Gal cells, read-out: HIV 104 pre (EC90)): 9.66 µM
EC50 (HIV strain 104pre; Human immunodeficiency virus 1, Table 7, HeLa CD4/LTR-beta-Gal cells, read-out: HIV 104 pre EC50): 0.059 µM
EC50 (HIV-1 (IIIb strain); [7]): 55 nM
EC50 (HIV-1 (IIIb strain); [17]): 0.0016 µg/mL
EC50 (HIV-1 (IIIb strain); [20]): 0.0011 µg/mL
EC50 [5, 18]: 4.1 µg/mL (≈ 15.3 µM)
EC50 [5, 12]: 5.34 µg/mL (≈ 20 µM)
EC50 (HIV wild strain: WT; [19]): 0.0059 µg/mL (≈ 0.0221 µM)
EC50 (HIV wild strain: WT; [13]): 0.0027 µg/mL (≈ 0.0101 µM)

C#C[C@]1(CO)O[C@@H](n2cnc3c(=O)[nH]c(N)nc32)CC1O (stereo partly drawn) [Compound 30, 9-(2-deoxy4-C-ethynyl-β-D-ribo-pentofuranosyl)guanine]
CC50 at 5 days [2, 8]: 0.41 µg/mL
EC50 [3, 9]: 0.0023 µg/mL (≈ 0.0079 µM)
CC50 [4, 10]: 15.2 µg/mL (≈ 52.2 µM)
EC50 (HIV-1 (IIIb strain); [20]): 0.00044 µg/mL
EC50 [5, 12]: 0.0014 µg/mL (≈ 0.00481 µM)
EC50 (HIV wild strain: WT; [13]): 0.002 µg/mL (≈ 0.00687 µM)
